Measurements reported in paper PMC11303563 (Communications Medicine, 2024).
“And” between values parts separate entries of the source, which are not always exact repeats. Equal values may be shown once.

Columns and labels:
[1] = test system: high-fat diet (HFD)-induced obesity model mice; experiment: Body weight of high-fat diet-induced obesity model mice; type: in vivo, C57BL/6J mice; design: Body weight, Mean Diff. ND vs. treated: unit not given here; details: for Body weight, 95.00% CI of diff. ND vs. treated / Body weight, Mean Diff. ND vs. treated: ND group as comparator; for Body weight, 95.00% CI of diff. ND vs. treated / Body weight, Mean Diff. ND vs. treated / Body weight, 95.00% CI of diff. Vehicle vs. treated / Body weight, Mean Diff. Vehicle vs. treated: Tukey's multiple comparisons test; for Body weight, Mean Diff. Vehicle vs. treated / Body weight, group mean (Fig. 3a) / Body weight, individual mice (Fig. 3a): in g (unit assumed); for Body weight, group mean (Fig. 3a) / Body weight, individual mice (Fig. 3a) / decrease of body weight compared to vehicle: HFD mice; for Body weight, group mean (Fig. 3a): n 10; for decrease of body weight compared to vehicle: 3 weeks
Experimental: The injection was given 6 h after light on. Food consumption and body weights were measured weekly. Food and water were provided to the animals ad libitum. The animals were treated according to the guidelines of Nagoya University, and all experimental procedures were approved by the Animal Experiment Committee of Nagoya University (A210715-003).
(§1) Epididymal adipose tissue was weighed.
(§2) Fig. 3 Effects of intraperitoneal injection of TH analogs on body weight and deposition of visceral fat. […] After three weeks of injection, body weight (a), and weight of the epididymal adipose tissue (b) were measured.

[2] = test system: high-fat diet (HFD)-induced obesity model mice; experiment: Weight of epididymal adipose tissue (visceral fat) in HFD mice; type: in vivo, C57BL/6J mice; details: for Fig. 3b (weight of epididymal adipose tissue), group mean (Mean 2): n=10; for Fig. 3b (weight of epididymal adipose tissue), group mean (Mean 2) / Fig. 3b (weight of epididymal adipose tissue), Mean Diff. ND vs. treatment (Tukey) / Fig. 3b (weight of epididymal adipose tissue), Mean Diff. Vehicle vs. treatment (Tukey) / Epididymal adipose weight, individual mice (Fig. 3b): in mg (unit assumed); for Fig. 3b (weight of epididymal adipose tissue), Mean Diff. ND vs. treatment (Tukey): ND minus treated; for Fig. 3b (weight of epididymal adipose tissue), Mean Diff. Vehicle vs. treatment (Tukey): Vehicle minus treated
Experimental: as §1, §2

[3] = test system: high-fat diet (HFD)-induced obesity model mice; experiment: Serum lipid analysis (total cholesterol, triglycerides) in HFD mice; type: in vivo, C57BL/6J mice; design: Serum TC (Fig. 4a), individual mouse values / Serum TG (Fig. 4b), individual mouse values / Serum TC (Fig. 4a), Mean Diff. ND vs. treatment (Tukey) / Serum TC (Fig. 4a), Mean Diff. Vehicle vs. treatment (Tukey) / Serum TC (Fig. 4a), group mean (Mean 2) / Mean Diff., ND vs. treated (Fig. 4b) / Mean Diff., Vehicle vs. treated (Fig. 4b) / Mean (Fig. 4b): unit not given here; details: for Serum TC (Fig. 4a), group mean (Mean 2) / Mean (Fig. 4b): n=10; for Serum TC (Fig. 4a), Mean Diff. ND vs. treatment (Tukey): ND minus treated; for Serum TC (Fig. 4a), Mean Diff. Vehicle vs. treatment (Tukey): Vehicle minus treated; for Mean Diff., ND vs. treated (Fig. 4b) / Mean Diff., Vehicle vs. treated (Fig. 4b): Tukey's multiple comparisons test; for Mean (Fig. 4b): group mean
Experimental: Fig. 4 Effects of TH analogs on the accumulation of lipids in mice. […] After 3 weeks of injection, serum and liver tissues were collected, and the amount of serum cholesterol (a), serum triglycerides (b), liver cholesterol (c), liver triglycerides (d), and liver total lipids (e) were measured.

[4] = In vitro blood-brain barrier permeability assay (BBB kit RBT-24H); type: in vitro ADME, rat
Experimental: Therefore, we tested BBB transparency in vitro using the BBB kit RBT-24H (PharmaCo-Cell)[35]. […] Blood-brain barrier permeability assay The blood-brain barrier (BBB) transparency of TH analogs was assessed in vitro using RBT-24H (PharmaCo-Cell)[5] according to the manufacturer 's protocol. […] After 30 min, the assay buffer in the wells mimicking the abluminal side was collected, and the concentration of the compounds was measured using liquid chromatography-mass spectrometry (LC-MS). […] These tips were preconditioned with 20 μL of acetonitrile and 20 μL of 0.1% TFA in purified water. 100 μL of the samples were loaded onto the preconditioned tips, washed with 200 μL of DW, and then eluted with 10 μL of acetonitrile. Triazine (1% vol/vol) was added to the eluent as an internal standard. […] 3 μm; Imtakt, Kyoto, Japan). All the experiments were performed using an Ultimate 3000 UHPLC system coupled with a Q Exactive Plus Orbitrap mass spectrometer (Thermo Fisher Scientific). […] Data were shown as mean ± standard deviation (n=3).

[5] = test system: THR-regulated genes and lipid metabolism-related genes in the liver
THRα = details: cited from earlier work
full-length human THRα = molecular target: T1, full-length human THRα (Homo sapiens, UniProt P10827); experiment: [125I]-T3-displacement assay, THRα; details: from IC50 values THRα vs THRβ
T1 sequence (P10827 1-410 isoform P10827-2): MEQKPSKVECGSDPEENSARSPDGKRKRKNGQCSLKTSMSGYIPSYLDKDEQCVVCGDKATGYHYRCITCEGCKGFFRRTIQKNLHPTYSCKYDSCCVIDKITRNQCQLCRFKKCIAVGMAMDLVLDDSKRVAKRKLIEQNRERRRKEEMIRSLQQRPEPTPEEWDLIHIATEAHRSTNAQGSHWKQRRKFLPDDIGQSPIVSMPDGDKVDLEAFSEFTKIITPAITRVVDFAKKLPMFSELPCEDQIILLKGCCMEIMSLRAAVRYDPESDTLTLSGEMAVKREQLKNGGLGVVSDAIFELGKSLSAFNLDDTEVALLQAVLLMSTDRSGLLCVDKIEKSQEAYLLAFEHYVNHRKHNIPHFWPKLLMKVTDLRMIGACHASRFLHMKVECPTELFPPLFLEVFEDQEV
Experimental: The coding sequences of full-length human THRα and THRβ were amplified by PCR.
The PCR products of THRα and β were cloned into EcoRI–KpnI and EcoRI–XbaI sites of pTNT (Promega), respectively. The resultant expression vectors, pTNT-THRα and pTNT-THRβ, were used for the synthesis of THRs by in vitro translation.
THRα and THRβ were synthesized by in vitro translation using TNT T7 Quick Coupled Transcription and Translation kit (Promega) according to the manufacturer’s protocol. After incubation at 30 °C for 90 min, the reaction mixtures were stored at −80 °C until use.
The reaction mixture was incubated overnight at 4 °C. A nitrocellulose membrane (Optitran, 0.45 μm in pore size, Whatman) pre-blocked by E-400 buffer was placed on a dot-blot apparatus (Minifold I, GE Healthcare), and the reaction mixtures were filtered through the membrane followed by three washes with 200 μL E-400 buffer. […] Radioactive signals were scanned using Typhoon FLA9000 (GE Healthcare) and quantified by Image Quant TL software (GE Healthcare). The IC50 values for each competitor were calculated by fitting the dose–response data to the log (inhibitor) vs. response (three parameters) model using GraphPad Prism (version 8.0; GraphPad Software).
Data are shown as mean ± SD (n = 3). Data were fitted to the log (inhibitor) vs. response (three parameters) model using GraphPad Prism (version 8.0; GraphPad Software).

[6] = HFD mice, 1 μmol/kg day, RT-qPCR, reference gene Rps18
[7] = liver gene expression, 1µmol dose group vs. Vehicle

## Cc1cc(OCC(=O)O)cc(C)c1Cc1ccc(O)c(C(C)C)c1 [GC-1]
[1]; 0.1 µmol dose group
  Body weight, 95.00% CI of diff. ND vs. treated: -9.046 to -0.3347
  Body weight, Mean Diff. ND vs. treated: -4.69
  Body weight, 95.00% CI of diff. Vehicle vs. treated: 5.485 to 13.92
  Body weight, Mean Diff. Vehicle vs. treated: 9.704
  Body weight, group mean (Fig. 3a): 33.21
  Body weight, individual mice (Fig. 3a): 29.83 and 31.33 and 29.67 and 36.57 and 36.31 and 35.71 and 35.26 and 34.18 and 33.67 and 29.56
[1]; 1 µmol dose group
  Body weight, 95.00% CI of diff. ND vs. treated: -9.111 to -0.3997
  Body weight, Mean Diff. ND vs. treated: -4.755
  Body weight, 95.00% CI of diff. Vehicle vs. treated: 5.420 to 13.86
  Body weight, Mean Diff. Vehicle vs. treated: 9.639
  Body weight, group mean (Fig. 3a): 33.27
  Body weight, individual mice (Fig. 3a): 32.13 and 30.51 and 31.76 and 34.15 and 34.95 and 32.95 and 36.28 and 31.91 and 35.57 and 32.53
[1]; i.p. 0.1 µmol/kg day
  decrease of body weight compared to vehicle: ~ 20%
[1]; i.p. 1 µmol/kg day
  decrease of body weight compared to vehicle: ~ 20%
[2]; 0.1 µmol, HFD mice
  Fig. 3b (weight of epididymal adipose tissue), group mean (Mean 2): 1486
[2]; 0.1 µmol
  Fig. 3b (weight of epididymal adipose tissue), Mean Diff. ND vs. treatment (Tukey): -802.3
  Fig. 3b (weight of epididymal adipose tissue), Mean Diff. Vehicle vs. treatment (Tukey): 1372
[2]; 1 µmol, HFD mice
  Fig. 3b (weight of epididymal adipose tissue), group mean (Mean 2): 1093
[2]; 1 µmol
  Fig. 3b (weight of epididymal adipose tissue), Mean Diff. ND vs. treatment (Tukey): -410.1
  Fig. 3b (weight of epididymal adipose tissue), Mean Diff. Vehicle vs. treatment (Tukey): 1765
[2]; HFD mice, 0.1 µmol dose group
  Epididymal adipose weight, individual mice (Fig. 3b): 1120.1 and 1287.3 and 1051.5 and 1562.9 and 1102.8 and 1733.2 and 1866.1 and 1900.9 and 1746.2 and 1485.7
[2]; HFD mice, 1 µmol dose group
  Epididymal adipose weight, individual mice (Fig. 3b): 1157.5 and 882.3 and 1400.3 and 1216.9 and 1046.3 and 975.7 and 1192.5 and 1112.9 and 1063.5 and 886.8
[2]; HFD mice, i.p., dose not given (0.1 or 1 µmol/kg day), 3 weeks
  weight of the epididymal adipose tissue vs vehicle: decreased significantly
[3]; 0.1 µmol, HFD mice
  Serum TC (Fig. 4a), individual mouse values: 76.25 and 108.417 and 114.042 and 114.792 and 113.958 and 112.208 and 91.25 and 101.875 and 101.042 and 98.458
  Serum TG (Fig. 4b), individual mouse values: 47.583 and 67.583 and 60.917 and 64.75 and 51.417 and 64.25 and 45.083 and 40.917 and 120.083
  Serum TC (Fig. 4a), group mean (Mean 2): 103.2
  Mean (Fig. 4b): 62.68
[3]; 0.1 µmol
  Serum TC (Fig. 4a), Mean Diff. ND vs. treatment (Tukey): 76.19
  Serum TC (Fig. 4a), Mean Diff. Vehicle vs. treatment (Tukey): 146.8
[3]; 1 µmol, HFD mice
  Serum TC (Fig. 4a), individual mouse values: 114.667 and 103 and 123.208 and 101.042 and 100.208 and 100.542 and 101.667 and 117.708 and 116.875 and 87.208
  Serum TG (Fig. 4b), individual mouse values: 89.25 and 100.917 and 117.583 and 93.417 and 90.917 and 81.75 and 125.917 and 105.083 and 72.583 and 61.75
  Serum TC (Fig. 4a), group mean (Mean 2): 106.6
  Mean (Fig. 4b): 93.92
[3]; 1 µmol
  Serum TC (Fig. 4a), Mean Diff. ND vs. treatment (Tukey): 72.81
  Serum TC (Fig. 4a), Mean Diff. Vehicle vs. treatment (Tukey): 143.5
[3]; ND minus 0.1 µmol group
  Mean Diff., ND vs. treated (Fig. 4b): 84.09
[3]; ND minus 1 µmol group
  Mean Diff., ND vs. treated (Fig. 4b): 52.85
[3]; Vehicle minus 0.1 µmol group
  Mean Diff., Vehicle vs. treated (Fig. 4b): 53.09
[3]; Vehicle minus 1 µmol group
  Mean Diff., Vehicle vs. treated (Fig. 4b): 21.86
[3]; HFD mice, i.p. 0.1 µmol/kg day, 3 weeks
  serum triglyceride level vs vehicle: decreased
[4]; 10 µM on luminal side, 30 min, mean ± standard deviation (n=3)
  Abluminal concentration: 0.0966 ± 0.0234 µM
[4]; rat, 10 μM on luminal side, read-out: apparent permeability (Papp)
  Papp at 30 min, 10 µM: 14.6 ± 3.54 ×10⁻⁶ cm/s
[5]; 1µmol, one value per animal
  Dio1 expression in the liver, individual animal values: 3.829 and 3.919 and 5.168 and 4.354 and 3.692 and 2.159 and 3.566 and 3.314 and 5.1441 and 5.131
  Ldlr expression in the liver, individual animal values: 1.223 and 2.2 and 0.6334 and 0.7002 and 0.6702 and 3.257 and 0.3372 and 1.534 and 1.675
  Me1 expression in the liver, individual animal values: 1.623 and 3.346 and 4.729 and 3.444 and 1.386 and 2.548 and 5.3983 and 2.089 and 4.684 and 5.253
  Pnpla2 expression in the liver, individual animal values: 2.545 and 1.795 and 3.166 and 2.343 and 2.009 and 2.4714 and 3.073 and 2.97 and 1.253 and 2.348
  Srebp1c expression in the liver, individual animal values: 0.08164 and 0.06602 and 0.1318 and 0.09978 and 0.1458 and 0.0919 and 0.4057 and 0.2719 and 0.0552 and 0.07309
  Thrsp expression in the liver, individual animal values: 1.4847 and 1.604 and 3.066 and 1.407 and 2.579 and 0.6637 and 2.019 and 1.066 and 1.315 and 1.484
[5]; [6]
  liver expression of Dio1 vs vehicle: significantly upregulated
  liver expression of Ldlr vs vehicle: not significantly different
  liver expression of Me1 vs vehicle: significantly upregulated
  liver expression of Pnpla2 vs vehicle: significantly higher
  liver expression of Srebp1c vs vehicle: significantly lower
  liver expression of Thrsp vs vehicle: increased
[5]; [7]
  Pnpla2, Dunn's multiple comparisons test, Mean rank diff. (Vehicle vs. compound): -16.8
  Srebp1c, Dunn's multiple comparisons test, Mean rank diff. (Vehicle vs. compound): 22.27
[5]; liver gene expression, 1µmol dose group, Vehicle mean rank 8
  Pnpla2, Mean rank of treatment group (Mean rank 2): 24.8
[5]; liver gene expression, 1µmol dose group, Vehicle mean rank […]
  Srebp1c, Mean rank of treatment group (Mean rank 2): 11.4
THRα
  lower affinity for THRα than T3: 10 fold
full-length human THRα
  affinity to THRα lower than that to THRβ: approximately 20 fold
